This experiment concerns the target T1, human serum albumin (HSA) (Homo sapiens, UniProt P02768).
T1 construct: gene ALB
The experiment can be described thus: Trp-214 fluorescence quenching titration (association constant KA at […] K), supported by time-resolved fluorescence, UV-Vis, CD and AFM; quenching described as dynamic. It is filed as binding. The settings on record: read-out: Equation (3) / K A/M^-1 (converted).

SMILES strings stand for the structures.

T1 sequence (P02768 25-609): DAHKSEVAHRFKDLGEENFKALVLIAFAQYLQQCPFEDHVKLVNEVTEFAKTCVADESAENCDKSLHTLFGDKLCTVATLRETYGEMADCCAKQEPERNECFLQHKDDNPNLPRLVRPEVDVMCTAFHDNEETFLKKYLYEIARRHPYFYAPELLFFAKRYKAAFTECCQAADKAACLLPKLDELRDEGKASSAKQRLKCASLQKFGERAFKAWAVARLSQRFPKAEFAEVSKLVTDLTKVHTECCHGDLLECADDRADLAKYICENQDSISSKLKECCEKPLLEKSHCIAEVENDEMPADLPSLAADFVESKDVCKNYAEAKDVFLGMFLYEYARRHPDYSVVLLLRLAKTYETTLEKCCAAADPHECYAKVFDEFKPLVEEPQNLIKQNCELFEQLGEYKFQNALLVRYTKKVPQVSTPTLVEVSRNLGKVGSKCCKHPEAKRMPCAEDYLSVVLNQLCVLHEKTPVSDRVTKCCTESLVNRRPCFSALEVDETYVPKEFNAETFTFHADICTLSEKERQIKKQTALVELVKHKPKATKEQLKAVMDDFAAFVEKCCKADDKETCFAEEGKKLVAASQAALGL

As for `O=C1C=C2C(=CCOC2O)O1` (stereo not shown) [patulin], the Kd is 38.5 µM.

The record behind these values is article PMC4119689, “Investigation of the Interaction between Patulin and Human Serum Albumin by a Spectroscopic Method, Atomic Force Microscopy, and Molecular Modeling” (BioMed Research International, 2014).
